# Results as given in patent US20060142336A1, “N-sulfonylpiperidines as metalloproteinase inhibitors (tace)” (priority 2002, published 2006).
# Columns and labels:
# [1] = molecular target: T1, proTNFα convertase enzyme (TACE) (Homo sapiens, UniProt P78536); assay: partially purified isolated enzyme assay for proTNFα convertase (TACE) inhibition; type: biochemical; settings: 10 μM of compound; enzyme from membranes of THP-1
# T1 construct: a partially purified, isolated enzyme assay, the enzyme being obtained from the membranes of THP-1; endogenous in cells; host or cells: THP-1 cell membranes (partially purified)
# Experimental: Recombinant human proMMP13 may be expressed and purified as described by Knauper et al. [V. Knauper et al., (1996) […] 271:1544-1550 (1996)]. […] Activity is determined by measuring the fluorescence at λex 328 nm and λem 393 nm. Percent inhibition is calculated as follows: % Inhibition is equal to the [Fluorescenceplus inhibitor−Fluorescencebackground] divided by the [Fluorescenceminus inhibitor−Fluorescencebackground].
# The ability of the compounds to inhibit proTNFα convertase enzyme (TACE) may be assessed using a partially purified, isolated enzyme assay, the enzyme being obtained from the membranes of THP-1 as described by K. M. Mohler et al., (1994) Nature 370:218-220. The purified enzyme activity and inhibition thereof is determined by incubating the partially purified enzyme in the presence or absence of test compounds using the substrate 4′,5′-Dimethoxy-fluoresceinyl Ser.Pro.Leu.Ala.Gln.Ala.Val.Arg.Ser.Ser.Ser.Arg.Cys(4-(3-succinimid-1-yl)-fluorescein)-NH2 in assay buffer (50 mM Tris HCl, pH 7.4 containing 0.1% (w/v) Triton X-100 and 2 mM CaCl2), at 26° C. for 4 hours. The amount of inhibition is determined as for MMP13 except λex 485 nm and λem 538 nm were used. […]
# T1 sequence (P78536 215-824): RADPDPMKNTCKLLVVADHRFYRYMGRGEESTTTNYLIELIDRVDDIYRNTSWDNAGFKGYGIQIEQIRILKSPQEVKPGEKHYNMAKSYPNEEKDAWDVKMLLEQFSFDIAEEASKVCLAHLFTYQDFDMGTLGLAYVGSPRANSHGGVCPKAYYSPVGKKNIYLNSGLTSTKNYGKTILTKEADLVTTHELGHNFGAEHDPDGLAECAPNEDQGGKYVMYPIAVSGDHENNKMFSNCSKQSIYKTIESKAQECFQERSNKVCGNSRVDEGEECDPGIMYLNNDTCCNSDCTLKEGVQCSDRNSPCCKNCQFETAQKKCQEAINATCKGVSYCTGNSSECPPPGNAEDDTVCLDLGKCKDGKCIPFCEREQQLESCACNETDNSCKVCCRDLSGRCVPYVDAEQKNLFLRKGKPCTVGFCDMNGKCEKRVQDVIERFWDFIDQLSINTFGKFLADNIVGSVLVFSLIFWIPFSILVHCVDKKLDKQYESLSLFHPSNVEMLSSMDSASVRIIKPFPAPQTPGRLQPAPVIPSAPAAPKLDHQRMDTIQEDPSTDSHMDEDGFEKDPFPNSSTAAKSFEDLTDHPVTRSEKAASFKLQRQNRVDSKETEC
SMILES,melting point,inhibition at 10 µM [1]
"Cc1cc(COC2CCN(S(=O)(=O)CC(C)C(=O)NO)CC2)c2ccccc2n1 (racemic) [Example 12, (R/S)-2-Methyl-3-({4-[(2-methylquinolin-4-yl)methoxy]piperidin-1-yl}sulphonyl)propionic hydroxamic acid]",184.7 °C,
"O=CN(O)C(CS(=O)(=O)N1CCC(OCc2cccc(F)c2)CC1)c1ccccc1 (racemic) [compound 25, (R/S)-2-({4-[(3-fluorobenzyl)oxy]piperidin-1-yl}sulphonyl)-1-phenylethyl(hydroxy)formamide]",,97%
"Cc1ccc(COC2CCN(S(=O)(=O)CC(c3cccnc3)N(O)C=O)CC2)cc1C (racemic) [compound 42, (R/S)-2-({4-[(3,4-dimethylbenzyl)oxy]piperidin-1-yl}sulphonyl)-1-pyridin-3-ylethyl(hydroxy)formamide]",,99%
